The values that follow come from publication PMC10976746 (Molecular Medicine, 2024).

Test [1] concerns the target T1, Macrophage migration inhibitory factor (MIF) (Homo sapiens, UniProt P14174).
T1 sequence (P14174 2-115): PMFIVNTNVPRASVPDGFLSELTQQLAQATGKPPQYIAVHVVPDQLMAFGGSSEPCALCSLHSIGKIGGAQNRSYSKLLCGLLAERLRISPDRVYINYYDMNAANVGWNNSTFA

Another test deals with murine MIF (Mus musculus, UniProt P34884). The test is described as follows: dopachrome tautomerase inhibition assay, recombinant mouse MIF. The class given is biochemical.

Consider `O=C(O)C(=O)Cc1ccc(O)cc1` [4-HPP, 4-hydroxyphenylpyruvate], for which, in test [1], the “keto-enol tautomerase kinetics (Michaelis-Menten), enol-HPP/borate at 306 nm” value is recorded as “(B) the substrate 4-HPP for MIF-induced keto-enol tautomerization”.
With `CS(=O)(=O)Nc1cc2occ(NC=O)c(=O)c2cc1Oc1ccccc1` [T-614, iguratimod], the IC50 at murine MIF worked out at 5.2 µM.
